Results: patent US20160355483A1, “COMPOUND BINDING TO PPARG BUT NOT ACTING AS PROMOTER AND PHARMACEUTICAL COMPOSITION FOR TREATING PPARG-RELATED DISEASES CONTAINING SAME AS ACTIVE INGREDIENT” (Hyundai Pharm Co., Ltd., priority 2014, published 2016)
“Also recorded” adds a separate entry of the source.

Legend:
[1] = target: T1, CYP 2C19 (Homo sapiens, UniProt P33261); test: CYP (cytochrome P450)-suppressing effect, BD GENTEST kit; format: in vitro ADME
T1 construct: purchased BD GENTEST 459400
Procedure: (§1) To evaluate the CYP (cytochrome P450)-suppressing activity of the compounds prepared in the examples of the invention, the following experiment was performed.
(§2) The analysis of CYP1A2, 2C19, and 3A4 suppressing activity was performed by using a BD GENTEST (459100, 459400, and 459500) kit, and the analysis of CYP 2C9- and 2D6-suppressing activity was performed by using an Invitrogen (P2861 and P2862) kit.
(§3) When the BD GENTEST kit was used, the compounds of the present invention were diluted in acetonitrile at the final concentration of 50×. The NADPH-Cofactor mix was prepared by diluting the Cofactor, G6PDH, and control protein provided by the kit in DW according to the instructed concentration. 4 μL of the compound of the example (50×) was mixed with 96 μL of NADPH-Cofactor mix in a 96-well plate, followed by pre-incubation in a 37° C. incubator for 10 minutes.
(§4) The enzyme/substrate mixture was diluted in the buffer (0.5 M potassium phosphate, pH 7.4) provided by the kit according to the instructed concentration. Each CYP450 enzyme substrate was diluted in DW at a desired concentration respectively according to the corresponding types of CYP450. 100 μL of the enzyme/substrate mixture was loaded in the plate when the pre-incubation had been completed, followed by reaction in a 37° C. incubator for 15 minutes (1A2) and 30 minutes (3A4 and 2C19). Upon completion of the reaction, the mixture was transferred to a white plate, and the fluorescent wavelength was measured with a microplate reader (1A2, 2C19 excitation 410 nm, emission 460 nm; 3A4, excitation 409 nm, emission 530 nm).
(§5) The test results were calculated by the following formula:
(§6) (1−(fluorescence value of the test material/fluorescence value of the vehicle))×100%.

[2] = target: T2, CYP 3A4 (Homo sapiens, UniProt P08684); test: as above; format: in vitro ADME
T2 construct: purchased BD GENTEST 459500
Procedure: as §1, §2, §3, §4, §5, §6

[3] = target: T3, CYP1A2 (Homo sapiens, UniProt P05177); test: as above; format: in vitro ADME
T3 construct: purchased BD GENTEST 459100
T3 sequence (P05177 1-516): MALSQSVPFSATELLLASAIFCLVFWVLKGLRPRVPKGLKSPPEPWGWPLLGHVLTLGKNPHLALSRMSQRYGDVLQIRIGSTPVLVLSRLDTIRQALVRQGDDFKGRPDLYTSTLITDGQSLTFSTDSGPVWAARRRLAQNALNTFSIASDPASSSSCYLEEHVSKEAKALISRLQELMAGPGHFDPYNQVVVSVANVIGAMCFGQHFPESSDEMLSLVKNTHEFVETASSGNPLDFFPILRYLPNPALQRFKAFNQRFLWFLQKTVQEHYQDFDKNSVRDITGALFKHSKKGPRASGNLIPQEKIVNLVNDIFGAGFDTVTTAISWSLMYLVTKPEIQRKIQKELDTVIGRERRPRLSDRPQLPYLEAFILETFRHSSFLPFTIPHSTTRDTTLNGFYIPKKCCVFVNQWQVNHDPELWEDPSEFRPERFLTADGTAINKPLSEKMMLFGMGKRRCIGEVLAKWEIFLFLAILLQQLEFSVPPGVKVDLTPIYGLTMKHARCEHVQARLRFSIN
Procedure: as §1, §2, §3, §4, §5, §6

[4] = target: T4, CYP 2C9 (Homo sapiens, UniProt P11712); test: CYP (cytochrome P450)-suppressing effect, Invitrogen Vivid kit; format: in vitro ADME
T4 construct: purchased Invitrogen P2861
Procedure: as §1, §2
(§7) When the Invitrogen kit was used, the compounds of the present invention were diluted in Vivid CYP450 reaction buffer (1×) at the final concentration of 2.5×. The P450 BACULOSOMES sample and Regeneration system (100×) were diluted in Vivid CYP450 reaction buffer (1×) at different proper concentrations. 80 μL of the compound of the invention (2.5×) and […] of the diluted P450 BACULOSOMES sample mixture were mixed in a U-bottom 96-well plate, followed by pre-incubation for 10 minutes. Vivid CYP450 Substrate and NADP+ (100×) were diluted in Vivid CYP450 reaction buffer (1×) at a desired concentration, respectively, according to their corresponding types of CYP450 and substrates. 20 μL of Substrate-NADP+ mix was loaded in the plate when the pre-incubation had been completed, followed by reaction for 1 hour. Upon completion of the reaction, the reaction mixture was transferred in a white plate and fluorescent wavelength was measured with a microplate reader (2C9 excitation 415 nm, emission 460 nm, 2D6 excitation 400 nm, emission 502 nm).
as §5, §6

[5] = target: T5, CYP 2D6 (Homo sapiens, UniProt P10635); test: as above; format: in vitro ADME
T5 construct: purchased Invitrogen P2862
Procedure: as §1, §2, §7, §5, §6

[6] = system: CYP isozymes 1A2, 2C9, 2C19, and 2D6; test: CYP suppression compared with comparative examples (Table 3); format: in vitro ADME; settings: result in words
Procedure: as §1, §2, §7, §3, §4, §5, §6

[7] = target: T6, PPARG (peroxisome proliferator activated receptor-gamma), GST-PPARG-LBD (Homo sapiens, UniProt P37231); test: LanthaScreen TR-FRET PPARG Competitive Binding Assay; design: key: “+” indicates the degree of the binding activity, and as the number of “+” increases, the binding activity is stronger; ++: “+” indicates the degree of the binding activity, and as the number of “+” increases, the binding activity is stronger; +++: “+” indicates the degree of the binding activity, and as the number of “+” increases, the binding activity is stronger; ++++: “+” indicates the degree of the binding activity, and as the number of “+” increases, the binding activity is stronger; settings: degree of binding activity
T6 construct: 15 μL of 5 nM GST-PPARG-LBD and 5 nM Tb-GST-antibody were added; purchased Invitrogen PV4894
T6 sequence (P37231 238-503 limits assumed): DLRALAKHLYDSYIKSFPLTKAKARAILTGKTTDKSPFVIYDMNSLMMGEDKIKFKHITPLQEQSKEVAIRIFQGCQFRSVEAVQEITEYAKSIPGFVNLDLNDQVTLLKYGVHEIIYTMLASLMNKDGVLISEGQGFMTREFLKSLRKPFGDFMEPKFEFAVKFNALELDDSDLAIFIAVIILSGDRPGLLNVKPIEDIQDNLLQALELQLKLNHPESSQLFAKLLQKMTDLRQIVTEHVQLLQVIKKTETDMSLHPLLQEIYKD
In short: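 GST-tagged human PPARG LBD in a TR-FRET competitive binding kit, 1 h at room temperature. Read-out is the 518/488 nm emission ratio (340 nm excitation); activity = 100% − compound ratio/vehicle ratio, compared with rosiglitazone.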

T1 sequence (P33261 whole entry): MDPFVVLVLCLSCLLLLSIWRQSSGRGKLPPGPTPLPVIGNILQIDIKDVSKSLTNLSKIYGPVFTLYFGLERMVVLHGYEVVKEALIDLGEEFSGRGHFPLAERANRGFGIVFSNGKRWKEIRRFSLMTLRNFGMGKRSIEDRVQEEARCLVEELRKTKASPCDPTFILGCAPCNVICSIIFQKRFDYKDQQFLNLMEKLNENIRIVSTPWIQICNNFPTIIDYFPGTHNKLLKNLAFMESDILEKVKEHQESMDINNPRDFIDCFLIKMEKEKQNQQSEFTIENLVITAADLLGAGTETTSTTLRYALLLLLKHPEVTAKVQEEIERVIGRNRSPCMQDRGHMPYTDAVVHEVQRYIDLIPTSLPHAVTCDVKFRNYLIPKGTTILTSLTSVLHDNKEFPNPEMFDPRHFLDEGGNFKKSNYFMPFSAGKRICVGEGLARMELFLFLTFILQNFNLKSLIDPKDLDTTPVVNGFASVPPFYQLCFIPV
T4 sequence (P11712 whole entry): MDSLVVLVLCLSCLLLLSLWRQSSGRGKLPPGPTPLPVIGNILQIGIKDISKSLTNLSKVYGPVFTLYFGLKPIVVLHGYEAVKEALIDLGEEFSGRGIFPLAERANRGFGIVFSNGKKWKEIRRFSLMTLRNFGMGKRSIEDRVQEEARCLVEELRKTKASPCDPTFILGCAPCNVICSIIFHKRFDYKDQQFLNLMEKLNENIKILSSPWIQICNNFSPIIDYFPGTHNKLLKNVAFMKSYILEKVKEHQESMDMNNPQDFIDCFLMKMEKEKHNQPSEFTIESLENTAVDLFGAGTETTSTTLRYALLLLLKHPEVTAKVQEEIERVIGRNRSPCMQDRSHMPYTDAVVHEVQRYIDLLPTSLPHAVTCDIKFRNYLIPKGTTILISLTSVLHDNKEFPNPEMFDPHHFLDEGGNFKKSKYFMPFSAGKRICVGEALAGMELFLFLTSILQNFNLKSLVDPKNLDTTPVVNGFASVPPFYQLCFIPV
T5 sequence (P10635 whole entry): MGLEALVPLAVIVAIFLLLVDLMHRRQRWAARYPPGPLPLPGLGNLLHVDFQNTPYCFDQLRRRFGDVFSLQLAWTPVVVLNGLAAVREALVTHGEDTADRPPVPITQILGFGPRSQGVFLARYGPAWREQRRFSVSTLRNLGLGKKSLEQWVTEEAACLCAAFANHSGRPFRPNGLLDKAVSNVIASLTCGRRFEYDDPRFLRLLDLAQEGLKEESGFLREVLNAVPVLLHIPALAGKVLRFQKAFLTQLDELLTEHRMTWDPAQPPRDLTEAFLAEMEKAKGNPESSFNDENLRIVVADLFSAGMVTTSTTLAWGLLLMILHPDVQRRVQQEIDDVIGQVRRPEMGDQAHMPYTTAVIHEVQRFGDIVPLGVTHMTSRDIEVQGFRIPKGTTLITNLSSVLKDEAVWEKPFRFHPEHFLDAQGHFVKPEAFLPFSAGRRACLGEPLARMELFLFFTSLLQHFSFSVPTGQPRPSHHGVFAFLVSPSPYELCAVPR
T2 sequence (P08684 whole entry): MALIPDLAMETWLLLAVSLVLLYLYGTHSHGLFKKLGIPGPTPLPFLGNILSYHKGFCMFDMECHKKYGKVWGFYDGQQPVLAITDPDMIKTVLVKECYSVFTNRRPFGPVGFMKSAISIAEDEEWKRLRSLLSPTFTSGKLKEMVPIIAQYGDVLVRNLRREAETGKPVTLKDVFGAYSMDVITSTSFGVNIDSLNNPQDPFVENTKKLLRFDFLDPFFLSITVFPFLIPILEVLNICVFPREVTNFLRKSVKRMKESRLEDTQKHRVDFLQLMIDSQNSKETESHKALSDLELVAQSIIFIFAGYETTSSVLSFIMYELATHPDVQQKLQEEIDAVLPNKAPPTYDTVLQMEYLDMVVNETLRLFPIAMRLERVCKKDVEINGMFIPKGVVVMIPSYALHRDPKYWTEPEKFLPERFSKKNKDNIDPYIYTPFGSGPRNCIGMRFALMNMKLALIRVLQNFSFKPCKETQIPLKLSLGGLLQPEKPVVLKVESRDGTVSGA

Structure (SMILES)	CYP(10 μL, %) 2C19 [1] [%]	CYP(10 μL, %) 3A4 [2] [%]	CYP(10 μL, %) 1A2 [3] [%]	CYP(10 μL, %) 2C9 [4] [%]	CYP(10 μL, %) 2D6 [5] [%]	Binding assay (1 μLM) [7]	suppression of CYP isozymes 1A2, 2C9, 2C19, and 2D6 compared with SR1664 and SR1824 [6]
C[C@H](NC(=O)c1ccc2c(c1)OCCN2Cc1ccc(-c2ccccc2C(=O)O)cc1)c1ccc([N+](=O)[O-])cc1 [Example 60, (S)-4′-((7-((1-(4-nitrophenyl)ethyl)carbamoyl)-2H-benzo[b][1,4]oxazine-4(3H)-yl)methyl)-[1,1′-biphenyl]-2-carboxylic acid]	69.60	70.64	100.63	80.25	62.27	++	less than the compounds of the comparative examples; also recorded: less strongly than the compounds of the Comparative Examples
C[C@H](NC(=O)c1ccc2c(c1)CCCN2Cc1ccc(-c2ccccc2C(N)=O)cc1F)c1ccc([N+](=O)[O-])cc1 [Example 113, (S)-1-((2′-carbamoyl-3-fluoro-[1,1′-biphenyl]-4-yl)methyl)-N-(1-(4-nitrophenyl)ethyl)-1,2,3,4-tetrahydroquinoline-6-carboxamide]	54.70	85.01	97.27	67.73	78.65	++	less than the compounds of the comparative examples; also recorded: less strongly than the compounds of the Comparative Examples
C[C@H](NC(=O)c1ccc2c(c1)OCCN2Cc1ccc(-c2ccccc2C(=O)O)cc1)c1ccccc1 [Example 58, (S)-4′-((7-((1-phenylethyl)carbamoyl)-2H-benzo[b][1,4]oxazine-4(3H)-yl)methyl)-[1,1′-biphenyl]-2-carboxylic acid]	70.53	56.92	100.93	57.47	55.23	+	less than the compounds of the comparative examples; also recorded: less strongly than the compounds of the Comparative Examples

Now from value to molecule, other results behind:

CYP(10 μL, %) 2C19 [1] [%]	CYP(10 μL, %) 3A4 [2] [%]	CYP(10 μL, %) 1A2 [3] [%]	CYP(10 μL, %) 2C9 [4] [%]	CYP(10 μL, %) 2D6 [5] [%]	Binding assay (1 μLM) [7]	Structure (SMILES)	suppression of CYP isozymes 1A2, 2C9, 2C19, and 2D6 compared with SR1664 and SR1824 [6]
79.96	71.24	97.99	64.28	86.13	++	C[C@H](NC(=O)c1ccc2c(c1)CCCN2Cc1ccc(-c2ccccc2C(=O)O)cc1)c1ccc(C#N)cc1 [Example 14, (S)-4′-((6-((1-(4-cyanophenyl)ethyl)carbamoyl)-3,4-dihydroquinoline-1(2H)-yl)methyl)-[1,1′-biphenyl]-2-caboxylic acid]	less than the compounds of the comparative examples; also recorded: less strongly than the compounds of the Comparative Examples
91.36	81.98	102.89	80.68	83.97	+	C[C@H](NC(=O)c1ccc2c(c1)OCCN2Cc1ccc(-c2ccccc2C(=O)O)cc1)c1ccc(C#N)cc1 [Example 74, (S)-4′-((7-((1-(4-cyanophenyl)ethyl)carbamoyl)-2H-benzo[b][1,4]oxazine-4(3H)-yl)methyl)-[1,1′-biphenyl]-2-carboxylic acid]	less than the compounds of the comparative examples; also recorded: less strongly than the compounds of the Comparative Examples
69.53	53.03	97.28	55.18	88.44	+++	C[C@H](NC(=O)c1ccc2c(c1)CCCN2Cc1ccc(-c2ccccc2C(=O)O)cc1F)c1ccc(C#N)cc1 [Example 110, (S)-4′-((6-((1-(4-cyanophenyl)ethyl)carbamoyl)-3,4-dihydroquinoline-1(2H)-yl)methyl)-3′-fluoro-[1,1′-biphenyl]-2-carboxylic acid]	less than the compounds of the comparative examples; also recorded: less strongly than the compounds of the Comparative Examples
58.85	52.65	102.45	59.36	82.48	+++	C[C@H](NC(=O)c1ccc2c(c1)CCCN2Cc1cccc(-c2ccccc2C(N)=O)c1)c1ccc([N+](=O)[O-])cc1 [Example 123, (S)-1-((2′-carbamoyl-[1,1′-biphenyl]-3-yl)methyl)-N-(1-(4-nitrophenyl)ethyl)-1,2,3,4-tetrahydroquinoline-6-carboxamide]	less than the compounds of the comparative examples; also recorded: less strongly than the compounds of the Comparative Examples
